For data set [1] the following is noted: from COC(=O)[C@H](Cc1ccc(OC)c(B2OC(C)(C)C(C)(C)O2)c1)NC(=O)[C@H](C)NC(=O)[C@@H](NC(=O)OC(C)(C)C)c1ccc(OC)c(I)c1; cc_pd bond; PdCl2(dppf); acetonitrile; 70.3 mM; 44.0 °C; 3.0 h.
For data set [2], the system named is MB 5393 (COL), a methicillin-resistant S. aureus strain. Nature of the data set: Determination of minimum and synergistic inhibitory concentration. The data set is classed as cell-based. Particulars: for SIC: presence of imipenem (4 μg/mL); for MIC: Staphylococcus aureus. The gist of the method: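 Broth microdilution: two-fold compound dilutions (final 64 to 0.0313 μg/mL) tested with and without subinhibitory imipenem (4 μg/mL) against MRSA COL at ~5×10^5 CFU/mL, 37°C, 22-24 hr stationary. MIC is lowest concentration preventing visible growth without imipenem; SIC same with imipenem.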

A further data set concerns the target T1, SpsB (Staphylococcus aureus, UniProt P0A070).
T1 construct: using a bacterial membrane fraction as a source of SpsB; from tissue
T1 sequence (P0A070 1-191): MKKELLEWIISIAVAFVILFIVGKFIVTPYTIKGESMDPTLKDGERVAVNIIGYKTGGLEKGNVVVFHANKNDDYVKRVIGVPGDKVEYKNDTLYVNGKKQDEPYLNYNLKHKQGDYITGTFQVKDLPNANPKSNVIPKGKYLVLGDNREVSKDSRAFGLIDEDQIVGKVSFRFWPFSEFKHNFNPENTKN
The experiment in a line: Inhibition of SpsB enzyme activity (fluorescence-based assay, bacterial membrane fraction). It counts as biochemical. Put shortly: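 Membrane fraction from bacteria supplied SpsB (0.6 mg/mL final protein), added last to start reactions with 20 μM lipopeptide substrate decanoyl-K(DABCYL)-TPTAKA↓ASKKD-D(EDANS)-NH2 (Km≈5 μM). Cleavage was followed as rising fluorescence, excitation 340/emission 460 nm.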

Setting [3] is: MRSA COL, absence of imipenem, 22 hours, read-out: MIC.

Where two headings read alike, the source gives them in different places. A value given as a limit tells only on which side of the number the result lay.

Regarding `COC(=O)[C@@H]1Cc2ccc(OC)c(c2)-c2cc(ccc2OC)[C@H](NC(=O)OC(C)(C)C)C(=O)N[C@@H](C)C(=O)N1`, the ring closure, yield of all isomers in data set [1] amounted to 20%.

What is called MIC is the smallest concentration in the dilution series that meets the test's criterion for growth inhibition. A word on the IC50: it is the concentration at which inhibition is half-maximal. Consider `CCC[C@H]1CC[C@H](c2ccc(-c3ccc(C(=O)NCCC(=O)N[C@@H](CCCCN)C(=O)N(C)[C@@H]4C(=O)N[C@@H](C)C(=O)N[C@H](C(=O)O)Cc5ccc(O)c(c5)-c5cc4ccc5O)cc3)cc2)CC1` [EXAMPLE 46], for which the SIC entry in data set [2] (MRSA COL, 22 hours) is on record as “G (G: SIC <0.0625)”. The MIC in data set [2] (MRSA, 22 h) was less than 1 µg/mL. The IC50 on SpsB was less than 10 nM.

For `CCCc1ccc(-c2ccc(C(=O)NCCC(=O)N3CC(CCN)C[C@H]3C(=O)N(C)[C@@H]3C(=O)N[C@@H](C)C(=O)N[C@H](C(=O)O)Cc4ccc(O)c(c4)-c4cc3ccc4O)cc2)cc1` (stereo partly shown) [EXAMPLE 53], in data set [2] (MRSA COL, 22 hours), the SIC result is “G (G: SIC <0.0625)”. For the same molecule, in data set [2] (MRSA, 22 h), the MIC is less than 1 µg/mL. Further, the IC50 against SpsB is less than 10 nM.

With `C[C@@H]1NC(=O)[C@@H](N(C)C(=O)[C@H](CCCCN)NC(=O)CCNC(=O)c2ccc(CCCCCCCCc3ccccc3)cc2)c2ccc(O)c(c2)-c2cc(ccc2O)C[C@@H](C(=O)O)NC1=O.O=C(O)C(F)(F)F` [EXAMPLE 15, (5S)-6-[[(7S,10S,13S)-13-carboxy-3,18-dihydroxy-10-methyl-8,11-dioxo-9,12-diazatricyclo[13.3.1.12,6]icosa-1(19),2(20),3,5,15,17-hexaen-7-yl](methyl)amino]-6-oxo-5-[(3-{[4-(8-phenyloctyl)benzoyl]amino}propanoyl)amino]hexan-1-aminium], the SIC result in data set [2] (MRSA COL, 22 hours) is “G (G: SIC <0.0625)”. In addition, in data set [2] (setting [3]), the MIC was less than 1 µg/mL. On SpsB, this molecule registered an IC50 of less than 10 nM.

Turning to `CCCCCCCCCCc1ccc2cc(C(=O)NCCC(=O)N3CC[C@H]3C(=O)N(C)[C@@H]3C(=O)N[C@@H](C)C(=O)N[C@H](C(=O)O)Cc4ccc(O)c(c4)-c4cc3ccc4O)ccc2c1` [EXAMPLE 20, (8S,11S,14S)-3,18-dihydroxy-11-methyl-14-(methyl[(2R)-1-{3-[(6-decyl-2-naphthoyl)amino]propanoylazetidin-2-yl]carbonyl}amino)-10,13-dioxo-9,12-diazatricyclo[13.3.1.1^2,6]icosa-1(19),2(20),3,5,15,17-hexaene-8-carboxylic acid], the SIC result in data set [2] (MRSA COL, 22 hours) is recorded as “G (G: SIC <0.0625)”. Moreover, in data set [2] (setting [3]), the minimal inhibitory concentration (MIC) lay within 1 to 8 µg/mL. Moreover, at SpsB, the IC50 was less than 10 nM.

For `CCCCCCCCCc1ccc(-c2ccc(C(=O)NCCC(=O)N[C@@H](CCCCN)C(=O)N(C)[C@@H]3C(=O)N[C@@H](C)C(=O)N[C@H](C(=O)O)Cc4ccc(O)c(c4)-c4cc3ccc4O)c(F)c2)cc1` [EXAMPLE 66], in data set [2] (MRSA COL, 22 hours), the SIC result is “G (G: SIC <0.0625)”. In data set [2] (MRSA, 22 h), the MIC is less than 1 µg/mL. For the same molecule, the IC50 against SpsB lay within 10 to 50 nM.

With `CCCc1ccc(-c2ccc(C(=O)NCCC(=O)N[C@H](CCCCN)C(=O)N(C)[C@@H]3C(=O)N[C@@H](C)C(=O)N[C@H](CO)Cc4ccc(O)c(c4)-c4cc3ccc4O)cc2)cc1.O=C(O)C(F)(F)F` (mixture of isomers) [EXAMPLE 5, (5R,S)-6-[[(7S,10S,13S)-3,18-dihydroxy-13-(hydroxymethyl)-10-methyl-8,11-dioxo-9,12-diazatricyclo[13.3.1.1^2,6]icosa-1(19),2(20),3,5,15,17-hexaen-7-yl](methyl)amino]-6-oxo-5-[(3-{[(4′-propylbiphenyl-4-yl)carbonyl]amino}propanoyl)amino]hexan-1-aminium trifluoroacetate], the SIC result in data set [2] (MRSA COL, 22 hours) is reported as “H (H: SIC 0.062-1)”. In addition, in data set [2] (setting [3]), the MIC is less than 1 µg/mL. For the same molecule, the IC50 at SpsB (20 μM peptide substrate, read-out: SpsB IC50) is less than 10 nM.

Consider `CCCc1ccc(-c2ccc(C(=O)NCCC(=O)NC(CCCCN)C(=O)N(C)[C@@H]3C(=O)N[C@@H](C)C(=O)N[C@H](C(=O)O)Cc4cccc(c4)-c4cccc3c4)cc2)cc1.O=C(O)C(F)(F)F` (stereo partly drawn) [EXAMPLE 9, 6-[[(7S,10S,13S)-13-carboxy-10-methyl-8,11-dioxo-9,12-diazatricyclo[13.3.1.1^2,6]icosa-1(19),2(20),3,5,15,17-hexaen-7-yl](methyl)amino]-6-oxo-5-[(3-{[(4′-propylbiphenyl-4-yl)carbonyl]amino}propanoyl)amino]hexan-1-aminium trifluoroacetate], for which the SIC entry in data set [2] (MRSA COL, 22 hours) is “H (H: SIC 0.062-1)”. Moreover, the MIC in data set [2] (setting [3]) was more than 8 µg/mL. Moreover, the IC50 at SpsB was 10 to 50 nM.

As for `CCCCCCCCCc1ccc(-c2ccc3cc(C(=O)NCCC(=O)N[C@@H](CCCCN)C(=O)N(C)[C@@H]4C(=O)N[C@@H](C)C(=O)N[C@H](C(=O)O)Cc5ccc(O)c(c5)-c5cc4ccc5O)sc3c2)cc1` [EXAMPLE 47], the SIC entry in data set [2] (MRSA COL, 22 hours) is listed as “G (G: SIC <0.0625)”. In data set [2] (MRSA, 22 h), the MIC was in the range of 1 to 8 µg/mL. The molecule further yielded an IC50 on SpsB of less than 10 nM.

On to `CCCCCCCc1ccc(-c2ccc(C(=O)NCCC(=O)N[C@@H](CCCCN)C(=O)N(C)[C@@H]3C(=O)N[C@@H](C)C(=O)N[C@H](C(=O)O)Cc4ccc(O)c(c4)-c4cc3ccc4O)cc2)cc1` [EXAMPLE 29], for which, in data set [2] (MRSA COL, 22 hours), the SIC entry is reported as “G (G: SIC <0.0625)”. Besides, the MIC in data set [2] (MRSA, 22 h) was less than 1 µg/mL. Besides, at SpsB, the IC50 is less than 10 nM.

In the case of `CCCCCCCCCc1ccc(-c2ccc(C(=O)NCCC(=O)N[C@@H](CCCCN)C(=O)N(C)[C@@H]3C(=O)N[C@@H](C)C(=O)N[C@H](C(=O)O)Cc4ccc(O)c(c4)-c4cc3ccc4O)cc2C)cc1` [EXAMPLE 58], the SIC result in data set [2] (MRSA COL, 22 hours) is given as “G (G: SIC <0.0625)”. For the same molecule, the MIC in data set [2] (MRSA, 22 h) was less than 1 µg/mL. Further, the IC50 at SpsB was less than 10 nM.

Source of the values: patent publication US20130244929A1 (priority 2010, published 2013).
